Where a name gives a salt, the structure may show the parent alone. Read-outs that look alike come from different tables or passages of the source.
Target: full-length human PRMT6 (Flag- and His-tagged) (Homo sapiens, UniProt Q96LA8)
Experiment: PRMT6 Biochemical Assay (3H-SAM Flashplate, peptide substrate)
Conditions: read-out: Biochemical IC50 PRMT6
Procedure, shortened: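 Radiometric methyltransferase readout: tritium transfer onto a biotin-tagged histone H4 36-50 peptide bearing monomethyl K44 (75 nM), captured on streptavidin Flashplates after stopping with 400 uM unlabeled SAM. Enzyme is baculovirus-expressed Flag-PRMT6-His at 1 nM, given 30 min with compound at room temperature before adding 200 nM 3H-SAM and 250 nM cold SAM (pH 7.6 Bicine, 2% DMSO). Percent inhibition relative to max/min (1 mM SAH) controls, curve-fit to IC50.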

[1] = single experiment or average of multiple experiments

full-length human PRMT6 (Flag- and His-tagged), sequence (Q96LA8 with tags, fused parts or gaps): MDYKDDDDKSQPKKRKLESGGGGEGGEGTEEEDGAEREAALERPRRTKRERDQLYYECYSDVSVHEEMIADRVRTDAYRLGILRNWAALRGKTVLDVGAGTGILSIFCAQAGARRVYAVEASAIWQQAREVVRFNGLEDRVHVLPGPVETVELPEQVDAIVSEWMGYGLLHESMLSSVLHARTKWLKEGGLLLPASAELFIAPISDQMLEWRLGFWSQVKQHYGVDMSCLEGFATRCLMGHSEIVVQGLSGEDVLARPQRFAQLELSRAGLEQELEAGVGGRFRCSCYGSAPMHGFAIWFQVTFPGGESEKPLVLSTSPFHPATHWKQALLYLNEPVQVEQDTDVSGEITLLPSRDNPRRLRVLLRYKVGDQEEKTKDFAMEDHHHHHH

CNCCN(C)Cc1c[nH]nc1C1CCC(C)(C)[C@H](C(=O)NCCOC)C1 (stereo partly drawn) [Compound 264]
IC50: 101 to 1000 nM
IC50 [1]: 133 nM

CCN(C(=O)CC(C)C)[C@H]1CC[C@@H](c2n[nH]cc2CN(C)CCNC)CC1 [Compound 240]
IC50: < 100 nM
IC50 [1]: 6.72 nM

CNCCN(C)Cc1c[nH]nc1C1CCC(C)(C)[C@H](C(=O)OC)C1 (stereo partly drawn) [Compound 256]
IC50: < 100 nM
IC50 [1]: 38.5 nM

CNCCN(C)Cc1cn(C)nc1[C@H]1CC[C@]2(CC1)CC(C)(C)CO2 [Compound 206, Methyl([1-methyl-3-[(5R,8S)-3,3-dimethyl-1-oxaspiro[4.5]decan-8-yl]-1H-pyrazol-4-yl]methyl)[2-(methylamino)ethyl]amine hydrochloride]
IC50: 101 to 1000 nM
IC50 [1]: 207 nM

CNCCN(C)Cc1c[nH]nc1[C@H]1CC[C@H](N(CCCOC)C(=O)CCC(C)C)CC1 [Compound 243]
IC50: < 100 nM
IC50 [1]: 15.1 nM

CNCCN(C)Cc1n[nH]cc1[C@H]1CC[C@@]2(CC1)CC(C)(C)CO2 [Compound 200, Methyl[2-(methylamino)ethyl]([4-[(5S,8S)-3,3-dimethyl-1-oxaspiro[4.5]decan-8-yl]-1H-pyrazol-3-yl]methyl)amine trifluoroacetic acid salt]
IC50: < 100 nM

CNCCN(C)Cc1c[nH]nc1[C@H]1CC[C@H](N(CCOc2ccccc2)C(=O)CC(C)C)CC1 [Compound 223]
IC50: < 100 nM
IC50 [1]: 15.8 nM

CNCCN(C)Cc1c[nH]nc1[C@H]1CC[C@@H](N(CCOc2ccccc2)C(=O)CCCOC)CC1 [Compound 228]
IC50: < 100 nM
IC50 [1]: 18.5 nM

CCN(C(=O)CCOc1ccccc1)[C@H]1CC[C@@H](c2n[nH]cc2CN(C)CCNC)CC1 [Compound 224]
IC50: < 100 nM
IC50 [1]: 18 nM

CNCCN(C)Cc1n[nH]cc1[C@H]1CC[C@H](C(=O)NCCC(C)C)CC1 [Compound 203]
IC50: < 100 nM
IC50 [1]: 36.8 nM

CNCCN(C)Cc1cn(C)nc1[C@H]1CC[C@@]2(CC1)CC(C)(C)CO2 [Compound 205, Methyl([1-methyl-3-[(5S,8S)-3,3-dimethyl-1-oxaspiro[4.5]decan-8-yl]-1H-pyrazol-4-yl]methyl)[2-(methylamino)ethyl]amine hydrochloride]
IC50: < 100 nM
IC50 [1]: 71.5 nM

CNCCN(C)Cc1c[nH]nc1[C@H]1CC[C@H](N(CC(C)C)C(=O)CC2CCOCC2)CC1 [Compound 193]
IC50: < 100 nM
IC50 [1]: 95.1 nM

CCOC[C@@H]1C[C@H](COCC)C[C@H](c2n[nH]cc2CN(C)CCNC)C1 [Compound 189]
IC50: 1010 to 3000 nM
IC50 [1]: 1470 nM

CNCCN(C)Cc1c[nH]nc1[C@H]1CC[C@H](N(CC(C)C)C(=O)CCCOC)CC1 [Compound 249]
IC50: < 100 nM
IC50 [1]: 82.8 nM

CNCCN(C)Cc1c[nH]nc1[C@H]1CC[C@H](N(CC(C)C)C(=O)CCCOC)CC1 [Compound 248]
IC50: < 100 nM
IC50 [1]: 32.6 nM

CCN(C(=O)CC(C)C)[C@H]1CC[C@H](c2n[nH]cc2CN(C)CCNC)CC1 [Compound 239]
IC50: < 100 nM
IC50 [1]: 7.75 nM

CNCCN(C)Cc1c[nH]nc1C1CCC2(CCCC2)OC1 (stereo not drawn) [Compound 199]
IC50: < 100 nM
IC50 [1]: 36.5 nM

CNCCN(C)Cc1c[nH]nc1[C@H]1CC[C@H](N(CCC(C)C)C(=O)CCCOC)CC1 [Compound 238]
IC50: < 100 nM
IC50 [1]: 53.9 nM

CCN(C(=O)CC1CCOCC1)[C@H]1CC[C@@H](c2n[nH]cc2CN(C)CCNC)CC1 [Compound 196]
IC50: 101 to 1000 nM
IC50 [1]: 111 nM

CNCCN(C)Cc1cnn(C)c1[C@H]1CC[C@]2(CC1)CC(C)(C)CO2 [Compound 257]
IC50: 101 to 1000 nM
IC50 [1]: 153 nM

CNCCN(C)Cc1c[nH]nc1[C@H]1CC[C@@H](N(CCOc2ccccc2)C(=O)CC(C)C)CC1 [Compound 222]
IC50: < 100 nM
IC50 [1]: 21.3 nM

CCOC[C@H]1CC(c2n[nH]cc2CN(C)CCNC)C[C@H](COCC)C1 (stereo partly drawn) [Compound 188]
IC50: 1010 to 3000 nM
IC50 [1]: 1230 nM

CNCCN(C)Cc1c[nH]nc1[C@H]1CC[C@@H](N(CCOc2ccccc2)C(=O)CCOC)CC1 [Compound 218]
IC50: < 100 nM
IC50 [1]: 30.3 nM

CNCCN(C)Cc1c[nH]nc1[C@H]1CC[C@H](N(CCCOC)C(=O)CCOc2ccccc2)CC1 [Compound 247]
IC50: < 100 nM
IC50 [1]: 20.2 nM

CCC(=O)N(CCOc1ccccc1)[C@H]1CC[C@@H](c2n[nH]cc2CN(C)CCNC)CC1 [Compound 220]
IC50: < 100 nM
IC50 [1]: 18.4 nM

CNCCN(C)Cc1c[nH]nc1[C@H]1CC[C@H](C(=O)NCCOc2ccccc2)CC1 [Compound 211]
IC50: < 100 nM
IC50 [1]: 11.4 nM

CNCCN(C)Cc1c[nH]nc1[C@H]1CC[C@@H](N(CCC(C)C)C(=O)CCCOC)CC1 [Compound 237]
IC50: < 100 nM
IC50 [1]: 41 nM

CCN(C(=O)CCC(C)C)[C@H]1CC[C@@H](c2n[nH]cc2CN(C)CCNC)CC1 [Compound 251]
IC50: < 100 nM
IC50 [1]: 17.1 nM

CNCCN(C)Cc1c[nH]nc1[C@H]1CC[C@@H](C(=O)N(C)CC(C)C)CC1 [Compound 215]
IC50: < 100 nM
IC50 [1]: 30.6 nM

CNCCN(C)Cc1c[nH]nc1C1CCC(F)(F)CC1 [Compound 216]
IC50: < 100 nM
IC50 [1]: 20.5 nM

CNCCN(C)Cc1c[nH]nc1[C@H]1CC[C@@H](N(CC(C)C)C(=O)CCOC)CC1 [Compound 233]
IC50: < 100 nM
IC50 [1]: 47.9 nM

CNCCN(C)Cc1c[nH]nc1[C@H]1CC[C@H](N(CC2CCOCC2)C(=O)CC(C)C)CC1 [Compound 192]
IC50: 101 to 1000 nM
IC50 [1]: 173 nM

CNCCN(C)Cc1c[nH]nc1[C@H]1CC[C@@H](O)CC1 [Compound 217, 4-[4-([methyl[2-(methylamino)ethyl]amino]methyl)-1H-pyrazol-3-yl]cyclohexan-1-ol trifluoroacetate]
IC50: < 100 nM
IC50 [1]: 34 nM

CNCCN(C)Cc1c[nH]nc1[C@H]1CC[C@@H](N(CCCOC)C(=O)CC(C)C)CC1 [Compound 242]
IC50: < 100 nM
IC50 [1]: 41.7 nM

CNCCN(C)Cc1n[nH]cc1[C@H]1CC[C@]2(CC1)CC(C)(C)CO2 [Compound 201]
IC50: 101 to 1000 nM

CNCCN(C)Cc1c[nH]nc1C1CCC(C)(C)[C@@H](C(=O)NCCC(C)C)C1 (stereo partly drawn) [Compound 263, (1S)-2,2-dimethyl-5-[4-({methyl[2-(methylamino)ethyl]amino}methyl)-1H-pyrazol-3-yl]-N-(3-methylbutyl)cyclohexane-1-carboxamide]
IC50: < 100 nM
IC50 [1]: 63.8 nM

CNCCN(C)Cc1c[nH]nc1C1CCC(=O)CC1 [Compound 194]
IC50: < 100 nM
IC50 [1]: 22.7 nM

CNCCN(C)Cc1c[nH]nc1[C@H]1CC[C@H](N(CCOc2ccccc2)C(=O)CCOC)CC1 [Compound 219]
IC50: < 100 nM
IC50 [1]: 31.9 nM

CNCCN(C)Cc1c[nH]nc1C1CCC(C)(C)[C@H](C(=O)NCC(C)C)C1 (stereo partly drawn) [Compound 262]
IC50: < 100 nM
IC50 [1]: 81.2 nM

CCN(C(=O)CCC(C)C)[C@H]1CC[C@H](c2n[nH]cc2CN(C)CCNC)CC1 [Compound 250]
IC50: < 100 nM
IC50 [1]: 14.3 nM

CNCCN(C)Cc1c[nH]nc1C1CCC(C)(C)[C@H](C(=O)NCCCOC)C1 (stereo partly drawn) [Compound 265]
IC50: 101 to 1000 nM
IC50 [1]: 174 nM

CNCCN(C)Cc1cnn(C)c1[C@H]1CC[C@@]2(CC1)CC(C)(C)CO2 [Compound 245, Methyl ([2-[methyl([1-methyl-5-[(5S,8S)-3,3-dimethyl-1-oxaspiro[4.5]decan-8-yl]-1H-pyrazol-4-yl]methyl)amino]ethyl])amine trifluoroacetic acid salt]
IC50: < 100 nM
IC50 [1]: 62.2 nM

CNCCN(C)Cc1c[nH]nc1[C@H]1CC[C@@H](N(CCCOC)C(=O)CCOc2ccccc2)CC1 [Compound 246]
IC50: < 100 nM
IC50 [1]: 28.3 nM

CNCCN(C)Cc1c[nH]nc1[C@H]1CC[C@H](N(CCOC)C(=O)CC(C)C)CC1 [Compound 252]
IC50: < 100 nM
IC50 [1]: 48.3 nM

CCN(C(=O)CCOc1ccccc1)[C@H]1CC[C@H](c2n[nH]cc2CN(C)CCNC)CC1 [Compound 225]
IC50: < 100 nM
IC50 [1]: 11.6 nM

CNCCN(C)Cc1c[nH]nc1C1CCC(C)(C)[C@@H](C(=O)NCC(C)C)C1 (stereo partly drawn) [Compound 266]
IC50: < 100 nM
IC50 [1]: 79 nM

CNCCN(C)Cc1c[nH]nc1[C@H]1CC[C@H](N(CC(C)C)C(=O)CCOC)CC1 [Compound 234]
IC50: < 100 nM
IC50 [1]: 84.1 nM

CCOCC1CC(c2n[nH]cc2CN(C)CCNC)CCC1(C)C (stereo not drawn) [Compound 202]
IC50: < 100 nM
IC50 [1]: 66.4 nM

CNCCN(C)Cc1c[nH]nc1[C@H]1CC[C@H](N(CC(C)C)C(=O)CCOc2ccccc2)CC1 [Compound 232]
IC50: < 100 nM
IC50 [1]: 19.4 nM

CNCCN(C)Cc1c[nH]nc1[C@H]1CC[C@H](N(CCCOC)C(=O)CC(C)C)CC1 [Compound 241]
IC50: < 100 nM
IC50 [1]: 32.8 nM

CNCCN(C)Cc1c[nH]nc1[C@H]1CC[C@@H](N(CCOC)C(=O)CCC(C)C)CC1 [Compound 261]
IC50: < 100 nM
IC50 [1]: 31.7 nM

CN(CCN)Cc1c[nH]nc1[C@H]1CC[C@@]2(CC1)CC(C)(C)CO2 [Compound 207]
IC50: < 100 nM

CNCCN(C)Cc1c[nH]nc1[C@H]1CC[C@@H](C(=O)N(C)CCC(C)C)CC1 [Compound 210]
IC50: < 100 nM
IC50 [1]: 31.7 nM

CNCCN(C)Cc1c[nH]nc1C1CCC(=O)N(CCCOC)C1 (stereo not drawn) [Compound 190]
IC50: 101 to 1000 nM
IC50 [1]: 156 nM

CNCCN(C)Cc1c[nH]nc1[C@H]1CC[C@H](O)CC1 [Compound 227, 4-[4-([methyl[2-(methylamino)ethyl]amino]methyl)-1H-pyrazol-3-yl]cyclohexan-1-ol trifluoroacetate]
IC50: < 100 nM
IC50 [1]: 17.8 nM

CNCCN(C)Cc1c[nH]nc1[C@H]1CC[C@]2(CCN(Cc3cc(F)cc(F)c3)C2=O)CC1 [Compound 197]
IC50: < 100 nM
IC50 [1]: 10.7 nM

CNCCN(C)Cc1c[nH]nc1C1CCC(=O)N(Cc2ccc(C(F)(F)F)cc2)C1 (stereo not drawn) [Compound 191]
IC50: 101 to 1000 nM
IC50 [1]: 107 nM

Source: patent US11512053B2, “Arginine methyltransferase inhibitors and uses thereof” (priority 2013, dated 2022)
